Columns and labels:
[1] = system: bed bugs; assay: ST traps, kairomone components (Example 9); assay type: in vivo, Cimex lectularius; details: combined with CO2 and heat, Location 4
Description: The kairomone composition of A1 was split into it components by chemical class, to determine if all components were necessary. Three new kairomone blends were tested (Table 3, Example 4). Blend A2 contained only skatole and androstenone (male boar compounds), and the adjuvants. Blend A3 contained all the ingredients from A1, but in slightly different ratios. Blend A4 contained only the fatty acid components and adjuvants. Four treatments were tested as follows: T0=CF1S+HW;T1=CF1+HW+A3;T2=CF1+HW+A2;T3=CF1+HW+A4
For treatment T0, the CO2 blend was made without skatole (CF1S, Table 1, Example 1). All treatments were tested using ST traps assembled as in Example 4.
A new location was used for testing kairomone components. Location 4 was an inhabited, 2-bedroom duplex in the suburbs of Seattle. Vacuum sampling estimated bed bug populations in each room at between 2,000 and 10,000 insects, which is considered heavily infested. Two people slept in the bedrooms on cots raised 50 cm off the carpet, which were then isolated from bed bugs in harborages by placing under each bed leg a plastic 16 oz drinking cup filled with propylene glycol or white pepper powder. […]

[2] = system: bed bugs; assay: ST traps, adding skatole to carbon dioxide bait (Example 10); set-up: species or system Cimex lectularius; details: in vivo
From the text: Four ST traps from Example 3, baited with CF1, were paired with four ST traps baited with CF1S. Traps were placed in each of four corners of the location in Example 3. Traps were retrieved after one night. […] Additionally, all CF1 traps caught at least 2 bed bugs whereas half of the CF1S traps caught no bed bugs.

SMILES | attractiveness of kairomone blend or component to bed bugs [1] | effect of adding to the fermentative mixture on trap attractiveness [2]
C[C@]12CCC(=O)C[C@@H]1CC[C@@H]1[C@@H]2CC[C@]2(C)C=CC[C@@H]12 [androstenone] | acted synergistically with the fatty acid compounds to attract bed bugs | –
Cc1c[nH]c2ccccc12 [skatole, 3-methyl indole] | – | increased trap attractiveness to bed bugs

Reference: patent US8808721B2, “Bed bug attractants and methods for trapping bed bugs” (SpringStar Inc., priority 2011, dated 2014)
